Measured values reported in patent publication US12441730B2, “PRMT5 inhibitors” (Merck Sharp & Dohme LLC, priority 2019, dated 2025).
Read-outs that look alike come from different tables or passages of the source.

What was measured:
[1] = tested on: symmetric dimethylation of arginine (SDMA) of PRMT5 substrates in MCF-7 cells; assay: PRMT5 Cell Target Engagement (TE) Assay; type: cell-based; settings: 3 days treatment, SDMA high content imaging
In short: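 MCF-7 cells treated 3 days at 37 °C with a ten-point 1:3 titration from 10000 nM. Fixed cells immunostained with anti-SDMA and Alexa488 secondary; nuclear fluorescence quantified by high-content imaging versus DMSO wells, with IC50 from a 4-parameter fit.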

[2] = target: T1, Full-length (FL)-PRMT5-MEP50 enzyme complex (Homo sapiens, UniProt O14744); assay: PRMT5-MEP50 Enzyme Methylation Assay (Version A); type: biochemical
T1 construct: Full-length (FL)-PRMT5-MEP50 enzyme complex (recombinant proteins from baculovirus-transfected Sf21 cells: FL-PRMT5; MW=73837 kDa and FL-MEP50; MW=38614); made in house; host or cells: baculovirus-transfected Sf21 cells
T1 sequence (O14744 whole entry): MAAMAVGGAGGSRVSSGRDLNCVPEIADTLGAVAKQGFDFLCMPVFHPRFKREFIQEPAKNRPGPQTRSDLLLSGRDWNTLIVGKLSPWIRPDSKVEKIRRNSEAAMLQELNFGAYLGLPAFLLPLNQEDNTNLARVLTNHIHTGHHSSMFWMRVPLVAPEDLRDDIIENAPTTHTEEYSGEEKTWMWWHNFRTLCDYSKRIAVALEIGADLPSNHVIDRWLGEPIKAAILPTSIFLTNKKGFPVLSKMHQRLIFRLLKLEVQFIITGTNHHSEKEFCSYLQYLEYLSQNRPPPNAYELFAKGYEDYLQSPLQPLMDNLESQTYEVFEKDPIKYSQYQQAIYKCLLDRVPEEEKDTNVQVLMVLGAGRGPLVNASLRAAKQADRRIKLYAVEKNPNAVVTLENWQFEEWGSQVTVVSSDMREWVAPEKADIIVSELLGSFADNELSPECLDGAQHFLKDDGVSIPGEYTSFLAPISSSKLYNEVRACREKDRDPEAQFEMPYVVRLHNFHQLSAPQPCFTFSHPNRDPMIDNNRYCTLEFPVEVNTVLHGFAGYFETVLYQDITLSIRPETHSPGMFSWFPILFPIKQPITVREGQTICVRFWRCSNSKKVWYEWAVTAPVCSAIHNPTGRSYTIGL
T1 sequence (Q9BQA1 whole entry partner): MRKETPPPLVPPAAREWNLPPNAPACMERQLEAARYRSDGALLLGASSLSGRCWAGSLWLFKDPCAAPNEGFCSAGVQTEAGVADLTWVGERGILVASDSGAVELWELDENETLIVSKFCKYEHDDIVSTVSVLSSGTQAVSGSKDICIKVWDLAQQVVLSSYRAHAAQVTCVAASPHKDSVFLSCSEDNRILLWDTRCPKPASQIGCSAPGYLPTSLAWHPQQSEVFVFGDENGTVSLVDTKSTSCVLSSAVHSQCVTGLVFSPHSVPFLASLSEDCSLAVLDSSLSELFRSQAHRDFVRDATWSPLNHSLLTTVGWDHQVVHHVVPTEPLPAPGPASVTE
In short: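 Compound was pre-incubated with enzyme for 60 min, then reacted 150 min at 37° C. at final 1.0 nM PRMT5-MEP50, 15 μM SAM and 75 nM biotinylated H4R3(Me1) peptide, in 50 mM Bicine pH 8.0 with 1% DMSO. SAMDI mass-spectrometric readout of Me1→Me2 conversion. EC50 from 4- or 7-parameter regression.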

[3] = second value of 7 parameter biphasic fit, read-out: Enzyme Methylation Assay Version A (EC50 2)
[4] = single EC50 = 4 parameter single site sigmoidal fit, EC50 1 = first value of 7 parameter biphasic fit, read-out: Enzyme Methylation Assay Version A (EC50 or EC50 1)

Row | SMILES | EC50 ([1]; Homo sapiens, MCF7, 72 h) [nM] | EC50 [2, 3] [nM] | EC50 [2, 4] [nM] | EC50 [1] [nM]
1 | CC(C)N1CCNc2cc(C(=O)N3CC[C@]4(Cc5ccccc5CN4)[C@H](O)C3)ccc2C1=O [Example 27, 8-((3R,3’R)-3′-hydroxy-1,4-dihydro-1′H,2H-spiro[isoquinoline-3,4′-piperidine]-1′-carbonyl)-4-(propan-2-yl)-1,2,3,4-tetrahydro-5H-1,4-benzodiazepin-5-one] | 36.8 | 3350 | 3.65 | –
2 | CCN1CCNc2cc(C(=O)N3CC[C@]4(Cc5ccccc5CN4)[C@H](O)C3)ccc2C1=O [Example 26, 4-ethyl-8-((3R,3’R)-3′-hydroxy-1,4-dihydro-1′H,2H-spiro[isoquinoline-3,4′-piperidine]-1′-carbonyl)-1,2,3,4-tetrahydro-5H-1,4-benzodiazepin-5-one] | 12.3 | 684 | 1.44 | –
3 | O=C(c1cn2cc(C(F)(F)F)cc(C3CCOC3)c2n1)N1CC[C@]2(Cc3ccccc3CN2)[C@H](O)C1 (stereo partly drawn) [Example 154, ((3R,3′R)-3′-hydroxy-2,4-dihydro-1H-spiro[isoquinoline-3,4′-piperidin]-1′-yl)(8-(tetrahydrofuran-3-yl)-6-(trifluoromethyl)imidazo[1,2-a]pyridin-2-yl)methanone] | 4.42 | 266 | 0.802 | –
4 | O=C(c1c[nH]c2ncncc12)N1CC[C@]2(Cc3ccccc3CN2)[C@H](O)C1 [Example 190, [(3R,3′R)-3′-hydroxy-1,4-dihydro-1′H,2H-spiro[isoquinoline-3,4′-piperidin]-1′-yl](1H-pyrrolo[2,3-d]pyrimidin-5-yl)methanone] | ≥ 10000 | – | 343 | –
5 | Cc1ccc(C(=O)N2CC[C@]3(Cc4ccccc4CN3)[C@H](O)C2)cn1 [Example 221, [(3R,3′R)-3′-hydroxy-1,4-dihydro-1′H,2H-spiro[isoquinoline-3,4′-piperidin]-1′-yl](6-methyl-3-pyridinyl)methanone] | 2540 | 3510 | 43.6 | –
6 | O=C1Nc2cc(C(=O)N3CC[C@]4(Cc5ccccc5CN4)[C@H](O)C3)ccc2OC1C1CC1 (single isomer, unassigned) [Example 107, (2S or 2R)-2-cyclopropyl-6-((3R,3′R)-3′-hydroxy-1,4-dihydro-2H-spiro[isoquinoline-3,4′-piperidine]-1′-carbonyl)-2H-benzo[b][1,4]oxazin-3(4H)-one] | – | – | 0.272 | 6.67
7 | Cc1ccc(C(=O)N2CC[C@]3(Cc4ccccc4CN3)[C@H](O)C2)c(O)n1 [Example 219, 3-{[(3R,3′R)-3′-hydroxy-1,4-dihydro-1′H,2H-spiro[isoquinoline-3,4′-piperidin]-1′-yl]carbonyl}-6-methyl-2(1H)-pyridinone] | 4160 | 17400 | 204 | –
8 | CCC1Oc2ccc(C(=O)N3CC[C@]4(Cc5ccccc5CN4)[C@H](O)C3)cc2NC1=O (single isomer, unassigned) [Example 105, (2S or 2R)-2-ethyl-6-((3R,3′R)-3′-hydroxy-1,4-dihydro-2H-spiro[isoquinoline-3,4′-piperidine]-1′-carbonyl)-2H-benzo[b][1,4]oxazin-3(4H)-one] | – | 146 | 0.519 | 4.39
9 | COC(C)c1cc(C(F)F)cn2cc(C(=O)N3CC[C@]4(Cc5ccccc5CN4)[C@H](O)C3)nc12 (single isomer, unassigned) [Example 81] | – | – | 3.81 | 25
10 | O=C(c1cn(C(F)F)cn1)N1CC[C@]2(Cc3ccccc3CN2)[C@H](O)C1 [Example 224, [1-(difluoromethyl)-1H-imidazol-4-yl][(3R,3′R)-3′-hydroxy-1,4-dihydro-1′H,2H-spiro[isoquinoline-3,4′-piperidin]-1′-yl]methanone] | ≥ 10000 | 66800 | 3510 | –
11 | O=C(c1cn2cc(Br)ccc2n1)N1CCC2(Cc3ccccc3CN2)C(O)C1 (stereo not drawn) [Example 16, A diastereomer of (6-bromoimidazo[1,2-a]pyridin-2-yl)(3′-hydroxy-1,4-dihydro-1′H,2H-spiro[isoquinoline-3,4′-piperidin]-1′-yl)methanone] | 50.9 | 1590 | 2.02 | –
12 | N#CC1(COc2nc(Br)cn3cc(C(=O)N4CC[C@]5(Cc6ccccc6CN5)[C@H](O)C4)nc23)CC1 [Example 21, 1-(((6-bromo-2-((3R,3’R)-3′-hydroxy-1,4-dihydro-2H-spiro[isoquinoline-3,4′-piperidine]-l′-carbonyl)imidazo[1,2-a]pyrazin-8-yl)oxy)methyl)cyclopropane-1-carbonitrile] | 2.13 | – | 0.191 | –
13 | O=C(c1cn2cc(Br)cc(F)c2n1)N1CC[C@]2(Cc3ccccc3CN2)[C@H](O)C1 [Example 217, (6-bromo-8-fluoroimidazo[1,2-a]pyridin-2-yl)[(3R,3′R)-3′-hydroxy-1,4-dihydro-1′H,2H-spiro[isoquinoline-3,4′-piperidin]-1′-yl]methanone] | 11.3 | 40.3 | 0.73 | –

Further compounds by falling EC50 [2, 4], results first:

Row | EC50 ([1]; Homo sapiens, MCF7, 72 h) [nM] | EC50 [2, 3] [nM] | EC50 [2, 4] [nM] | EC50 [1] [nM] | SMILES
14 | 1500 | 8320 | 135 | – | O=C(c1cn2ncc(Br)cc2n1)N1CC[C@]2(Cc3ccccc3CN2)[C@H](O)C1 [Example 71, (7-bromoimidazo[1,2-b]pyridazin-2-yl)[(3R,3′R)-3′-hydroxy-1,4-dihydro-1′H,2H-spiro[isoquinoline-3,4′-piperidin]-1′-yl]methanone]
15 | – | 6460 | 8.94 | 275 | COCC1CC(C)Cn2cc(C(=O)N3CC[C@]4(Cc5ccccc5CN4)[C@H](O)C3)nc21 (single isomer, unassigned) [Example 157]
16 | 27.5 | 112 | 1.66 | – | O=C(c1cn2cc(C3CC3(F)F)cnc2n1)N1CC[C@]2(Cc3ccccc3CN2)[C@H](O)C1 (single isomer, unassigned) [Example 75]
17 | 14.1 | 794 | 1.51 | – | O=C(c1cc2ncc(Br)cn2n1)N1CC[C@]2(Cc3ccccc3CN2)[C@H](O)C1 [Example 17, (6-bromopyrazolo[1,5-a]pyrimidin-2-yl)((3R,3’R)-3′-hydroxy-1,4-dihydro-1′H,2H-spiro[isoquinoline-3,4′-piperidin]-1′-yl)methanone]
18 | 6.31 | – | 0.977 | – | CO[C@H](C)c1cc(-c2conc2C)cn2cc(C(=O)N3CC[C@]4(Cc5ccccc5CN4)[C@H](O)C3)nc12 [Example 246, [(3R,3′R)-3′-hydroxy-1,4-dihydro-1′H,2H-spiro[isoquinoline-3,4′-piperidin]-1′-yl]{8-[(1R)-1-methoxyethyl]-6-(3-methyl-4-isoxazolyl)imidazo[1,2-a]pyridin-2-yl}methanone]
19 | 10.1 | 313 | 0.715 | – | O=C(c1nn2cc(Br)cnc2c1Cl)N1CC[C@]2(Cc3ccccc3CN2)[C@H](O)C1 [Example 58, (6-bromo-3-chloropyrazolo[1,5-a]pyrimidin-2-yl)[(3R,3′R)-3′-hydroxy-1,4-dihydro-1′H,2H-spiro[isoquinoline-3,4′-piperidin]-1′-yl]methanone]
20 | 3.24 | 220 | 0.71 | – | O=C(c1cn2cc(Br)cc(CO)c2n1)N1CC[C@]2(Cc3ccccc3CN2)[C@H](O)C1 [Example 6, (6-bromo-8-(hydroxymethyl)imidazo[1,2-a]pyridin-2-yl)((3R,3’R)-3′-hydroxy-1,4-dihydro-2H-spiro[isoquinoline-3,4′-piperidin]-1′-yl)methanone]
21 | – | 215 | 0.565 | 3.71 | CC(O)c1cc(Br)cn2cc(C(=O)N3CC[C@]4(Cc5ccccc5CN4)[C@H](O)C3)nc12 (single isomer, unassigned) [Example 33, (6-bromo-8-((S or R)-1-hydroxyethyl)imidazo[1,2-a]pyridin-2-yl)((3R,3’R)-3′-hydroxy-1,4-dihydro-2H-spiro[isoquinoline-3,4′-piperidin]-1′-yl)methanone]
22 | 10.9 | 292 | 0.464 | – | COC(C)c1cc(C(C)C)cn2cc(C(=O)N3CC[C@]4(Cc5ccccc5CN4)[C@H](O)C3)nc12 (stereo partly drawn) [Example 84, A diastereomer of [(3R,3′R)-3′-hydroxy-1,4-dihydro-1′H,2H-spiro[isoquinoline-3,4′-piperidin]-1′-yl][6-isopropyl-8-(1-methoxyethyl)imidazo[1,2-a]pyridin-2-yl]methanone]
23 | – | 271 | 0.456 | 7.49 | COC(C)c1cc(Br)c2nc(C(=O)N3CC[C@]4(Cc5ccccc5CN4)[C@H](O)C3)cn2c1 (single isomer, unassigned) [Example 60]
24 | 7.98 | 313 | 0.354 | – | COC(C)c1cc(C(F)(F)F)cn2cc(C(=O)N3CC[C@]4(Cc5ccccc5CN4)[C@H](O)C3)nc12 (stereo partly drawn) [Example 67, [(3R,3′R)-3′-hydroxy-1,4-dihydro-1′H,2H-spiro[isoquinoline-3,4′-piperidin]-1′-yl][8-(1-methoxyethyl)-6-(trifluoromethyl)imidazo[1,2-a]pyridin-2-yl]methanone]
